Tested on: PP5 mRNA
Test: Northern blot analysis of PP5 mRNA expression in A549 cells
Assay type: cell-based, human
Set-up: key to Activity class in initial screen (PP5 mRNA reduction): oligonucleotides giving a reduction of PP5 mRNA of approximately 50% or greater were considered active
Conditions: for Activity class in initial screen (PP5 mRNA reduction) / Percent Inhibition of PP5 mRNA: 300 nM oligonucleotide; for Percent Inhibition of PP5 mRNA: four hours, lipofectin, approximate, compared to control
Text: The oligonucleotides shown in Table 1 were designed using the Genbank sequences HSSERTHRP (Genbank accession number X92121), HSRNAPPP5 (Genbank accession number X89416) and PPP5C (Genbank accession number U25174), synthesized and tested for inhibition of PP5 mRNA expression in A549 cells using a Northern blot assay. All oligonucleotides shown in Table 1 are chimeric oligonucleotides with central 2'-deoxy "gaps," which have phosphorothioate backbones, flanked on both sides by 2'-methoxyethoxy (2'-MOE) "wings" (shown in bold), which have phosphodiester backbones. All cytosines in the 2'-MOE wings are 5-methylcytosines.
In the initial screen, A549 cells were treated with oligonucleotides at a concentration of 300 nM oligonucleotide for four hours in the presence of […] lipofectin. Results were normalized and expressed as a percent of control. The effect of each oligonucleotide on levels of PP5 mRNA, expressed as approximate percent inhibition compared to control, is shown in Table 1. In this initial screen, oligonucleotides giving a reduction of PP5 mRNA of approximately 50% or greater were considered active. […] These sequences (SEQ ID NO: 1, 2, 3, 4, 6, 7 and 12, respectively, SEQ ID Nos shown in bold in Table 1) are therefore preferred.
These oligonucleotides were tested for their ability to reduce PP5 mRNA levels in A549 cells, using oligonucleotide doses of 25 to 500 nM.
The human lung tumor cell line A549 was obtained from the American Type Culture Collection (Rockville Md.) and were grown in DMEM (Gibco BRL, Gaithersburg Md.), supplemented with 10% fetal calf. Cells were seeded on 60 mm plates. When they reached 70% confluency, they were washed with DMEM and 1 ml of DMEM containing 15 μg/ml DOTMA/DOPE (Lipofectin®, GIBCO-BRL) and oligonucleotide at desired concentration was added. Duplicate dishes were used for each treatment condition. After 4 hours of treatment at 37°, cells were washed and cultured in fresh DMEM containing 10% fetal bovine serum for an additional 17 hours. Cells were then harvested and total RNA was extracted with TRIzol Reagent (GIBCO-BRL) according to manufacturer's protocol. Total RNA (20 μg) was fractionated on a 1% agarose gel containing formaldehyde, and transferred to a DURLON-UV (Stratagene) nylon membrane. Following UV crosslinking, the filters were hybridized with the appropriate protein phosphatase probe. The ^32 P-labeled human PP cDNA probes are generated with DECAPrime® DNA Labeling Kit (Ambion) according to the manufacturer's protocol. Hybridization was performed in a hybridization solution containing 50% formamide at 42° for 16 hours. This was followed by two low stringency washes (2×SSC) at room temperature and two high stringency washes (0.1×SSC/0.5% SDS) at 55° C. Hybridization signals were visualized by autoradiography, and filters were then stripped and reprobed with a ^32 P-labeled glyceraldehyde-3-phosphate dehydrogenase (GAPDH) probe to confirm equal loading. The densities of hybridization signals were measured with the NIH Image program (ImagePC).
The cells were harvested, and total RNA was extracted with TRIzol® Reagent according to the methods of the manufacturer. Total RNA (20 μg) was fractionated on 1% agarose gels containing formaldehyde and transferred to DURLON-UV nylon membranes (Stratagene). Following UV cross-linking, the filters were hybridized with a [α^32 P]probe for human PP5. The human PP5 cDNA probe was generated from the full length coding region of PP5 and [α^32 P]-dATP was labeled with DECAprime® DNA Labeling Kit according to the manufacturer's protocol. Hybridization was performed in the presence of 50% formamide, 0.1 M Pipes, 0.8 M NaCl, 5×Denhardt's solution, 100 μg/ml denatured herring sperm DNA, 1×10^6 cpm/ml [α-^32 P]-labeled probe and 10% dextran sulfate at 42° C. for 16 hours. Following hybridization, the membrane was subjected to two low stringency washes (2×SSC) at room temperature and then two high stringency washes (0.1×SSC/0.5% SDS) at 55° C. […]

Substance | Activity class in initial screen (PP5 mRNA reduction) | Percent Inhibition of PP5 mRNA | IC50 (doses of 25 to 500 nM, read-out: IC50 for reduction of PP5 mRNA levels)
ISIS 14498: chimeric 2'-MOE/deoxy gap antisense oligonucleotide to human PP5, coding; GTACTTGGCCTTCACCTCAC, SEQ ID NO: 6 (sugars by position and backbone not given here; chimeric 2'-MOE wings with deoxy gap) | active | – | –
ISIS 14493: chimeric 2'-MOE/deoxy gap antisense oligonucleotide to human PP5, AUG; TCGCCCTCCGCCATCGCCAT, SEQ ID NO: 1 (sugars by position and backbone not given here; chimeric 2'-MOE wings with deoxy gap) | active | – | –
ISIS 14503: chimeric 2'-MOE/deoxy gap antisense oligonucleotide to human PP5, 3' UTR; GCCCCAGCTGCTCCACCTCC, SEQ ID NO: 11 (sugars by position and backbone not given here; chimeric 2'-MOE wings with deoxy gap) | – | 27% | –
ISIS 14500: chimeric 2'-MOE/deoxy gap antisense oligonucleotide to human PP5, coding; AGAGCCCTGGAGGTGGATGT, SEQ ID NO: 8 (sugars by position and backbone not given here; chimeric 2'-MOE wings with deoxy gap) | – | 41% | –
ISIS 14505: chimeric 2'-MOE/deoxy gap antisense oligonucleotide to human PP5, 3' UTR; CCCAGCCTAGCCCCACCATG, SEQ ID NO: 13 (sugars by position and backbone not given here; chimeric 2'-MOE wings with deoxy gap) | – | 23% | –
ISIS 14497: chimeric 2'-MOE/deoxy gap antisense oligonucleotide to human PP5, coding; TCCCCACATACTGTAATCTT, SEQ ID NO: 5 (sugars by position and backbone not given here; chimeric 2'-MOE wings with deoxy gap) | – | 11% | –
ISIS 15523: chimeric PP5 antisense oligonucleotide, wider deoxy gap, uniformly phosphorothioate; GGGCCCTATTGCTTGAGTGG, SEQ ID NO: 12 (all phosphorothioate, sugars by position and methylation of C not given here; chimeric with deoxy gap) | – | – | ~100 nM
ISIS 14495: chimeric 2'-MOE/deoxy gap antisense oligonucleotide to human PP5, coding; GTAGGCCAGGCTGCGGTTGC, SEQ ID NO: 3 (sugars by position and backbone not given here; chimeric 2'-MOE wings with deoxy gap) | active | 66% | –
ISIS 14499: chimeric 2'-MOE/deoxy gap antisense oligonucleotide to human PP5, coding; CCAGGTTGTTCTCTTCCAAG, SEQ ID NO: 7 (sugars by position and backbone not given here; chimeric 2'-MOE wings with deoxy gap) | active | 62% | –
ISIS 14502: chimeric 2'-MOE/deoxy gap antisense oligonucleotide to human PP5, 3' UTR; CCTACCCCCTCTGCAAACCT, SEQ ID NO: 10 (sugars by position and backbone not given here; chimeric 2'-MOE wings with deoxy gap) | – | 40% | –
ISIS 14501: chimeric 2'-MOE/deoxy gap antisense oligonucleotide to human PP5, stop codon; CGCCCCGCCCGTCACCTCAC, SEQ ID NO: 9 (sugars by position and backbone not given here; chimeric 2'-MOE wings with deoxy gap) | – | 42% | –
ISIS 14496: chimeric 2'-MOE/deoxy gap antisense oligonucleotide to human PP5, coding; CCGCTGTACTCATCCTCAAT, SEQ ID NO: 4 (sugars by position and backbone not given here; chimeric 2'-MOE wings with deoxy gap) | active | 54% | –
ISIS 14504: chimeric 2'-MOE/deoxy gap antisense oligonucleotide to human PP5, 3' UTR; GGGCCCTATTGCTTGAGTGG, SEQ ID NO: 12 (sugars by position and backbone not given here; chimeric 2'-MOE wings with deoxy gap) | active | – | –
ISIS 14494: chimeric 2'-MOE/deoxy gap antisense oligonucleotide to human PP5, coding; TTCAGAGCTCCATCAGCCGG, SEQ ID NO: 2 (sugars by position and backbone not given here; chimeric 2'-MOE wings with deoxy gap) | active | 52% | –

— US6235891A, “Glucocorticoid receptor agonist and decreased PP5” (South Alabama Medical Science Foundation, priority 1999, dated 2001)
